Laboratory results from the supplement of paper PMC7695840.
Several values for one entry are separate records, joined by “and”; a condition that tells them apart may be missing. Equal entries are not always repeated.

How the values were obtained:
[1] = system: Staphylococcus aureus MW2 (mecA+); assay: IC50 (growth, competition assay); conditions: cefoxitin: subinhibitory
In short: (§1)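 Pre-induced, 1:1-mixed fluorescent S. aureus MW2 mecA+ and ΔmecA strains were grown 20 h at 37 °C, 90% humidity, unshaken, in LB with a daily-set subinhibitory cefoxitin dose, in 1536-well plates. Compounds were given on five- or nine-point 2-fold gradients, in two dye-swapped replicates. DsRed (540/590) and GFP (485/520) were scaled per plate between single-strain control medians, with No Treatment then set to 0.5. Per-strain IC50 was the dose halving the No Treatment signal, or the maximal signal.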

[2] = system: Staphylococcus aureus MW2 delta-mecA (mecA-); assay: IC50 (growth, competition assay); conditions: cefoxitin: subinhibitory
In short: as §1

| SMILES | IC50 ([1]; fluorescent label: DsRed) | IC50 ([1]; fluorescent label: GFP) | IC50 ([2]; fluorescent label: DsRed) | IC50 ([2]; fluorescent label: GFP) |
| --- | --- | --- | --- | --- |
| COc1ccnc2[nH]cc(C(=O)C(=O)N3CCN(C(=O)c4ccccc4)C[C@H]3C)c12 | > 150 µM | > 150 µM | > 150 µM | > 150 µM |
| COc1ncc(-c2ccc3nccc(-c4ccnnc4)c3c2)cc1NS(=O)(=O)c1ccc(F)cc1F | < 9.85 µM | < 9.85 µM | < 9.85 µM | < 9.85 µM |
| C[C@@H](Oc1cc(-c2cnn(C3CCNCC3)c2)cnc1N)c1c(Cl)ccc(F)c1Cl | 101 µM | 108 µM | 20.9 µM | 17 µM |
| C[C@@H]1CCO[C@H]2Cn3cc(C(=O)NCc4ccc(F)cc4F)c(=O)c(O)c3C(=O)N12 | > 150 µM | > 150 µM | 109 µM | 59 µM |
| C[C@H](Cc1ccc(O)c(O)c1)[C@@H](C)Cc1ccc(O)c(O)c1 | 33.4 µM | 57.9 µM | < 9.85 µM | < 9.85 µM |
| Cc1cc(F)c(Nc2ncnc3cc(OCc4ccccc4)ccc23)cc1O | > 150 µM | 138 µM | 139 µM | > 150 µM |
| Cc1ccc(C(=O)N(CCCN)[C@@H](c2oc3cc(Cl)ccc3c(=O)c2Cc2ccccc2)C(C)C)cc1 | 30.8 µM | 30.6 µM | 5.93 µM | 7.88 µM |
| Cc1ccc(C(=O)Nc2ccc(CN3CCN(C)CC3)c(C(F)(F)F)c2)cc1C#Cc1cnc2cccnn12 | 21.8 µM | 27.4 µM | 8.28 µM | 4.54 µM |
| Cc1ccc(S(=O)(=O)c2ccc([N+](=O)[O-])o2)cc1 | < 9.85 µM | < 9.85 µM | < 9.85 µM | < 9.85 µM |
| Cc1ccc(Sc2ccccc2N2CCNCC2)c(C)c1 | 43.5 µM | 54.2 µM | < 9.85 µM | 14.3 µM |
| NC1CCN(c2c(F)cc3c(=O)c(C(=O)O)cn(C4CC4)c3c2Cl)C1 (stereo not drawn) | < 9.85 µM | < 9.85 µM | < 9.85 µM | < 9.85 µM |
| NCC(=O)Nc1ccc(-n2nc(C(F)(F)F)cc2-c2ccc3c(ccc4ccccc43)c2)cc1 | 21.6 µM and 20.8 µM | 29.3 µM and 14.7 µM | 8.83 µM and 14.5 µM | 3.48 µM and 14.7 µM |
| NC[C@@H]1O[C@H](C23CC4CC(CC(C4)C2)C3)Cc2c1ccc(O)c2O | 34.9 µM | 56 µM | 34.6 µM | 54.9 µM |
| O=C(Nc1ccccc1)Nc1ccc(-c2ccc(C(=O)[C@@H]3CCC[C@H]3C(=O)O)cc2)cc1 | 22.7 µM | 41.4 µM | < 9.85 µM | < 9.85 µM |
| O=C(Nc1ncc(SCCN2CCCC2)s1)[C@]1(c2ccc(S(=O)(=O)C3CC3)cc2)C[C@H]1C1CCCCC1 | 111 µM | > 150 µM | 74.5 µM | 34.4 µM |
| O=C(Nc1ncc([N+](=O)[O-])s1)c1ccc([N+](=O)[O-])c(Cl)c1 | < 9.85 µM | < 9.85 µM | 13.2 µM | 15.2 µM |
| O=C1C(Cl)=C(NCCN2CCOCC2)C(=O)c2ncccc21 | 33 µM | 91.7 µM | 28.8 µM | < 9.85 µM |
